14 compounds from patent publication US20230365526A1, “PYRIDAZINE DERIVATIVES FOR MODULATING NUCLEIC ACID SPLICING” (REMIX THERAPEUTICS INC., priority 2020, published 2023) can be followed below.

Common to all, as to format: cell-based
In one experiment the test system is SMN2. The experiment can be described thus: Gene panel canonical junction RT-qPCR assay: SMN2. Conditions: read-out: SMN2 (IC50, decrease in CJ mRNA levels). As for the experimental part: (§1) Compounds described herein were used to modulate RNA transcript abundance in cells. The expression of a target mRNA was measured by detecting the formation of an exon-exon junction in the canonical transcript (CJ). A compound mediated exon-inclusion event was detected by observing an increase in formation of a new junction with an alternative exon (AJ). Real-time qPCR assays were used to detect these splicing switches and interrogate the potency of various compounds towards different target genes. A high-throughput real time quantitative PCR (RT-qPCR) assay was developed to measure these two isoforms of the mRNA (CJ and AJ) for an exemplary gene, HTT, together with a control housekeeping gene, GAPDH or GUSB or PPIA, used for normalization. Briefly, the A673 or K562 cell line was treated with various compounds described herein (e.g., compounds of Formula (I)). After treatment, the levels of the HTT mRNA targets were determined from each sample of cell lysate by cDNA synthesis followed by qPCR.
(§2) The A673 cell line was cultured in DMEM with 10% FBS. Cells were diluted with full growth media and plated in a 96-well plate (15,000 cells in 100 ul media per well). The plate was incubated at 37° C. with 5% CO2 for 24 hours to allow cells to adhere. An 11-point 3-fold serial dilution of the compounds was made in DMSO then diluted in media in an intermediate plate. Compounds were transferred from the intermediate plate to the cell plate with the top dose at a final concentration of 10 uM in the well. Final DMSO concentration was kept at or below 0.25%. The cell plate was returned to the incubator at 37° C. with 5% CO2 for an additional 24 hours.
(§3) The K562 cell line was cultured in IMDM with 10% FBS. For K562, cells were diluted with full growth media and plated in either a 96-well plate (50,000 cells in 50 uL media per well) or a 384-well plate (8,000-40,000 cells in 45 uL media per well). An 11-point 3-fold serial dilution of the compounds were made in DMSO then diluted in media in an intermediate plate. Compound was transferred from the intermediate plate to the cell plate with the top dose at a final concentration of 10 uM in the well. Final DMSO concentration was kept at or below 0.25%. Final volume was 100 uL for 96-well plate and 50 uL for 384-well plate. The cell plate was then placed in an incubator at 37° C. with 5% CO2 for 24 hours.
(§4) The cells were then gently washed with 50 uL-100 uL cold PBS before proceeding to addition of lysis buffer. 30 uL-50 uL of room temperature lysis buffer with DNAse I (and optionally RNAsin) was added to each well. Cells were shaken/mixed thoroughly at room temperature for 5-10 minutes for lysis to take place and then 3 uL-5 uL of room temperature stop solution was added and wells were shaken/mixed again. After 2-5 minutes, the cell lysate plate was transferred to ice for RT-qPCR reaction setup. The lysates could also be frozen at −80° C. for later use.
(§5) In some cases, a direct lysis buffer was used. An appropriate volume of 3×lysis buffer (10 mM Tris, 150 mM NaCl, 1.5%-2.5% Igepal and 0.1-1 U/uL RNAsin, pH 7.4) was directly added to either K562 or A673 cells in media and mixed by pipetting 3 times. The plates were then incubated at room temperature with shaking/rocking for 20-50 minutes to allow for lysis to take place. After this time, the cell lysate plate was transferred to ice to set up for the RT-qPCR reactions. The lysates could also be frozen at −80° C. for later use.
(§6) To set up 10 uL RT-qPCR reactions, cell lysates were transferred to 384-well qPCR plates containing the master mix according to the table below. The plates were sealed, gently vortexed, and spun down before the run. The volumes were adjusted accordingly in some instances where the reaction was carried in 20 uL. The table below summarizes the components of the RT-qPCR reactions:
(§7) The RT-qPCR reaction was performed using a QuantStudio (ThermoFisher) under the following fast cycling conditions. […]
On the technique in general: In qPCR the cycle at which signal appears reflects the starting amount.

The subject of the next experiment is HTT. The experiment can be described thus: Gene panel canonical junction RT-qPCR assay: HTT. Conditions: read-out: HTT (IC50, decrease in CJ mRNA levels). As for the experimental part: as §1, §2, §3, §4, §5, §6, §7
For the next experiment, the system named is HTT mRNA. The experiment can be described thus: RT-qPCR splicing assay monitoring HTT canonical (CJ) and alternative (AJ) junction mRNA in A673 or K562 cells. Conditions: 24 hours compound treatment, top dose 10 uM. The protocol: as §1
• Cells-to-CT 1-step kit: ThermoFisher A25602, Cells-to-CT lysis reagent: ThermoFisher 4391851C, TaqMan™ Fast Virus 1-Step Master Mix: ThermoFisher 4444436 • GAPDH: VIC-PL, ThermoFisher 4326317E (Assay: Hs99999905_m1)—used for K562/suspension cell lines • GUSB: VIC-PL, ThermoFisher 4326320E (Assay: Hs99999908_m1)—used for K562/suspension cell lines • PPIA: VIC-PL, ThermoFisher 4326316E (Assay: Hs99999904_m1)—used for A673/adherent cell lines
as §2, §3, §4
In some cases, a direct lysis buffer was used. An appropriate volume of 3×lysis buffer (10 mM Tris, 150 mM NaCl, 1.5%-2.5% Igepal and 0.1-1 U/uL RNAsin, pH 7.4) was directly added to either K562 or A673 cells in media and mixed by pipetting 3 times. The plates were then incubated at room temperature with shaking/rocking for 20-50 minutes to allow for lysis to take place. After this time, the cell lysate plate was transferred to ice to set up for the RT-qPCR reactions. The lysates could also be frozen at −80° C. for later use. […]

Another experiment deals with Target C. The experiment can be described thus: Gene panel canonical junction RT-qPCR assay: Target C. Conditions: read-out: Target C (IC50, decrease in CJ mRNA levels). As for the experimental part: as §1, §2, §3, §4, §5, §6, §7
Where [1] appears, read: decrease in CJ mRNA, read-out: HTT CJ AC50.
[2] abbreviates: increase in AJ mRNA, read-out: HTT AJ AC50.

Like-named read-outs stand apart in the source and are kept apart here. Some results are limits rather than exact numbers.

As usually defined, the IC50 is the midpoint of a concentration-inhibition curve. The term AC50 denotes the concentration at which the activity in the assay is half-maximal. With `CN(c1ccc(-c2ccc(-n3cccn3)c(=O)[nH]2)nn1)[C@@H]1C[C@H]2CC[C@@H](C1)N2` [Compound 130, 6-[6-[(1R,3S,5S)-8-azabicyclo[3.2.1]octan-3-yl(methyl)amino]pyridazin-3-yl]-3-(pyrazol-1-yl)-1H-pyridin-2-one], the IC50 was 1000 to 10000 nM with SMN2, 100 to 1000 nM in the experiment with HTT and under 100 nM in the experiment on Target C. The AC50 was in the range of 100 to 1000 nM in the experiment on HTT mRNA (setting [1]) and 1000 to 10000 nM in the experiment on HTT mRNA (setting [2]).

As for `COc1nc(-c2ccc(N(C)[C@@H]3C[C@H]4CC[C@@H](C3)N4)nn2)ccc1-c1cn[nH]c1` [Compound 133, (1R,3S,5S)—N-[6-[6-methoxy-5-(1H-pyrazol-4-yl)pyridin-2-yl]pyridazin-3-yl]-N-methyl-8-azabicyclo[3.2.1]octan-3-amine], the IC50 in the experiment with SMN2, with HTT and with Target C was under 100 nM in each case. Further, the AC50 was under 100 nM in the experiment with HTT mRNA (setting [1]) and 100 to 1000 nM with HTT mRNA (setting [2]).

Turning to `COc1nc(-c2ccc(N(C)[C@@H]3CCN[C@H](C)C3)nn2)ccc1-c1cn[nH]c1` [Compound 136, 6-[6-methoxy-5-(1H-pyrazol-4-yl)pyridin-2-yl]-N-methyl-N-[(2R,4R)-2-methylpiperidin-4-yl]pyridazin-3-amine], the IC50 was 100 to 1000 nM in the experiment with SMN2 and 1000 to 10000 nM with HTT. Further, the AC50 in the experiment with HTT mRNA (setting [1]) and with HTT mRNA (setting [2]) was 1000 to 10000 nM in each case.

For the compound `CN(c1ccc(-c2ccc(-c3cn[nH]c3)c(C#N)n2)nn1)[C@@H]1C[C@H]2CC[C@@H](C1)N2` [Compound 262, 6-{6-[(1R,3R,5S)-8-azabicyclo[3.2.1]octan-3-yl(methyl)amino]pyridazin-3-yl}-3-(1H-pyrazol-4-yl)pyridine-2-carbonitrile], the IC50 in the experiment with HTT and with Target C was under 100 nM throughout. The AC50 with HTT mRNA (setting [1]) is under 100 nM; in the experiment on HTT mRNA (setting [2]), 100 to 1000 nM.

Consider `COc1nc(-c2ccc(N(C)[C@@H]3C[C@H]4CC[C@@H](C3)N4)nn2)cc(F)c1-c1cn[nH]c1` [Compound 268, (exo)-N-{6-[4-fluoro-6-methoxy-5-(1H-pyrazol-4-yl)pyridin-2-yl]pyridazin-3-yl}-N-methyl-8-azabicyclo[3.2.1]octan-3-amine], for which the IC50 in the experiment with HTT and in the experiment with Target C was under 100 nM throughout. Besides, the AC50 in the experiment with HTT mRNA (setting [1]) and in the experiment on HTT mRNA (setting [2]) was under 100 nM in each case.

Turning to `COc1nc(-c2ccc(N(C)C3C[C@H]4CC[C@@H](C3)N4)nn2)ccc1-c1cnn(C)n1` (stereo partly shown) [Compound 269, N-{6-[6-methoxy-5-(2-methyl-1,2,3-triazol-4-yl)pyridin-2-yl]pyridazin-3-yl}-N-methyl-8-azabicyclo[3.2.1]octan-3-amine], the IC50 in the experiment with HTT was under 100 nM; in the experiment on Target C, 100 to 1000 nM. Further, the AC50 in the experiment with HTT mRNA (setting [1]) and in the experiment with HTT mRNA (setting [2]) was 100 to 1000 nM in each case.

As to `COc1nc(-c2ccc(NC3CCNCC3)nn2)ccc1-c1cnn(C)n1` [Compound 270, 6-[6-methoxy-5-(2-methyl-1,2,3-triazol-4-yl)pyridin-2-yl]-N-(piperidin-4-yl)pyridazin-3-amine], the IC50 in the experiment on HTT and with Target C was 1000 to 10000 nM in each case. Moreover, the figures for the AC50 in the experiment with HTT mRNA (setting [1]) and in the experiment with HTT mRNA (setting [2]) were over 10000 nM and 1000 to 10000 nM, respectively.

As to `COc1nc(-c2ccc(OC3CC(C)(C)NC(C)(C)C3)nn2)ccc1-n1cccn1` [Compound 271, bis(3-[6-methoxy-5-(pyrazol-1-yl)pyridin-2-yl]-6-[(2,2,6,6-tetramethylpiperidin-4-yl)oxy]pyridazine)], the IC50 in the experiment with HTT and with Target C was 1000 to 10000 nM throughout. Moreover, the half-maximal activity concentration (AC50) with HTT mRNA (setting [1]) and in the experiment on HTT mRNA (setting [2]) was 1000 to 10000 nM throughout.

Take `COc1nc(-c2ccc(N(C)C3CC(C)(C)NC(C)(C)C3)nn2)ccc1-n1cccn1` [Compound 272, 6-[6-methoxy-5-(pyrazol-1-yl)pyridin-2-yl]-N-methyl-N-(2,2,6,6-tetramethylpiperidin-4-yl) pyridazin-3-amine]: the IC50 with HTT and in the experiment on Target C was 1000 to 10000 nM in each case. Further, the concentration at half-maximal activity (AC50) in the experiment on HTT mRNA (setting [1]) and with HTT mRNA (setting [2]) was 100 to 1000 nM throughout.

`CC(C)Oc1nc(-c2ccc(N(C)[C@@H]3C[C@H]4CC[C@@H](C3)N4)nn2)ccc1-c1cn[nH]c1` [Compound 284, (1R,3R,5S)—N-{6-[6-isopropoxy-5-(1H-pyrazol-4-yl)pyridin-2-yl]pyridazin-3-yl}-N-methyl-8-azabicyclo[3.2.1]octan-3-amine]: the IC50 is under 100 nM with HTT and 100 to 1000 nM with Target C. Moreover, the values for the AC50 in the experiment on HTT mRNA (setting [1]) and with HTT mRNA (setting [2]) were under 100 nM and 1000 to 10000 nM, respectively.

Turning to `CN(c1ccc(-c2ccc(-c3cn[nH]c3)c(OC3CC3)n2)nn1)[C@@H]1C[C@H]2CC[C@@H](C1)N2` [Compound 286, (1R,3R,5S)—N-{6-[6-cyclopropoxy-5-(1H-pyrazol-4-yl)pyridin-2-yl]pyridazin-3-yl}-N-methyl-8-azabicyclo[3.2.1]octan-3-amine], the IC50 with HTT and with Target C was under 100 nM each time. For the same compound, the AC50 in the experiment on HTT mRNA (setting [1]) and in the experiment with HTT mRNA (setting [2]) was under 100 nM in each case.

With `COc1nc(-c2ccc(N(C)[C@@H]3C[C@H]4CC[C@@H](C3)N4)nn2)ccc1-c1cnn(C)c1` [Compound 287, (1R,3s,5S)-N-(6-(6-methoxy-5-(1-methyl-1H-pyrazol-4-yl)pyridin-2-yl)pyridazin-3-yl)-N-methyl-8-azabicyclo [3.2.1] octan-3-amine], the 50% inhibitory concentration (IC50) with HTT and in the experiment on Target C was under 100 nM in each case. Moreover, the AC50 in the experiment on HTT mRNA (setting [1]) is under 100 nM; in the experiment on HTT mRNA (setting [2]), 100 to 1000 nM.

On to `COc1nc(-c2ccc(NC3CCNCC3)nn2)ccc1-n1cccn1` [Compound 288, 6-[6-methoxy-5-(pyrazol-1-yl)pyridin-2-yl]-N-(piperidin-4-yl) pyridazin-3-amine], for which the 50% inhibitory concentration (IC50) in the experiment on HTT and in the experiment on Target C was over 10000 nM in each case. Moreover, the AC50 in the experiment with HTT mRNA (setting [1]) and in the experiment on HTT mRNA (setting [2]) was over 10000 nM in each case.

Take `COc1nc(-c2ccc(O[C@@H]3C[C@H]4CC[C@@H](C3)N4)nn2)ccc1-c1cn(C)nn1` [Compound 290, 3-({6-[6-methoxy-5-(1-methyl-1,2,3-triazol-4-yl)pyridin-2-yl]pyridazin-3-yl}oxy)-8-azabicyclo[3.2.1]octane]: the IC50 in the experiment with HTT fell in the range of 100 to 1000 nM; in the experiment on Target C, 1000 to 10000 nM. In addition, the AC50 with HTT mRNA (setting [1]) is 100 to 1000 nM; with HTT mRNA (setting [2]), over 10000 nM.
